Measured values reported in BigSolDB 2.1.

Compound `CC(=O)Nc1ccc(OC(=O)c2ccccc2OC(C)=O)cc1` has a solubility (mole fraction) (in acetone, 278.15 K) of 0.00215, a solubility (mole fraction) (in acetone, 283.15 K) of 0.00268 and a solubility (mole fraction) (in acetone, 288.15 K) of 0.00353. The solubility (mole fraction) (in acetone, 293.15 K) was 0.00414, the solubility (mole fraction) (in acetone, 298.15 K) was 0.0052 and the solubility (mole fraction) (in acetone, 303.15 K) was 0.00593. For the same compound, the solubility (mole fraction) (in acetone, 308.15 K) was 0.00792, the solubility (mole fraction) (in acetone, 313.15 K) was 0.0098 and the solubility (mole fraction) (in acetone, 318.15 K) was 0.0123. It also gave a solubility (mole fraction) (in acetonitrile, 278.15 K) of 0.00129, a solubility (mole fraction) (in acetonitrile, 283.15 K) of 0.00153 and a solubility (mole fraction) (in acetonitrile, 288.15 K) of 0.00192. For the same compound, the solubility (mole fraction) (in acetonitrile, 293.15 K) was 0.00235, the solubility (mole fraction) (in acetonitrile, 298.15 K) was 0.00275 and the solubility (mole fraction) (in acetonitrile, 303.15 K) was 0.00378. It also gave a solubility (mole fraction) (in acetonitrile, 308.15 K) of 0.00452, a solubility (mole fraction) (in acetonitrile, 313.15 K) of 0.00575 and a solubility (mole fraction) (in acetonitrile, 318.15 K) of 0.00674. The solubility (mole fraction) (in ethanol, 278.15 K) was 0.000242, the solubility (mole fraction) (in ethanol, 283.15 K) was 0.000364 and the solubility (mole fraction) (in ethanol, 288.15 K) was 0.000497. It also gave a solubility (mole fraction) (in ethanol, 293.15 K) of 0.000601, a solubility (mole fraction) (in ethanol, 298.15 K) of 0.000717 and a solubility (mole fraction) (in ethanol, 303.15 K) of 0.000987. For the same compound, the solubility (mole fraction) (in ethanol, 308.15 K) was 0.00125, the solubility (mole fraction) (in ethanol, 313.15 K) was 0.00155 and the solubility (mole fraction) (in ethanol, 318.15 K) was 0.002. For the same compound, the solubility (mole fraction) (in ethyl acetate, 278.15 K) was 0.000904, the solubility (mole fraction) (in ethyl acetate, 283.15 K) was 0.00109 and the solubility (mole fraction) (in ethyl acetate, 288.15 K) was 0.00115. It also gave a solubility (mole fraction) (in ethyl acetate, 293.15 K) of 0.00147, a solubility (mole fraction) (in ethyl acetate, 298.15 K) of 0.00179 and a solubility (mole fraction) (in ethyl acetate, 303.15 K) of 0.00216. It also gave a solubility (mole fraction) (in ethyl acetate, 308.15 K) of 0.00268, a solubility (mole fraction) (in ethyl acetate, 313.15 K) of 0.00325 and a solubility (mole fraction) (in ethyl acetate, 318.15 K) of 0.00391. The solubility (mole fraction) (in ethyl formate, 278.15 K) was 0.000965, the solubility (mole fraction) (in ethyl formate, 283.15 K) was 0.00111 and the solubility (mole fraction) (in ethyl formate, 288.15 K) was 0.00138. For the same compound, the solubility (mole fraction) (in ethyl formate, 293.15 K) was 0.00165, the solubility (mole fraction) (in ethyl formate, 298.15 K) was 0.00193 and the solubility (mole fraction) (in ethyl formate, 303.15 K) was 0.00227. It also gave a solubility (mole fraction) (in ethyl formate, 308.15 K) of 0.00299, a solubility (mole fraction) (in ethyl formate, 313.15 K) of 0.00394 and a solubility (mole fraction) (in ethyl formate, 318.15 K) of 0.00449. For the same compound, the solubility (mole fraction) (in isobutanol, 278.15 K) was 0.000204, the solubility (mole fraction) (in isobutanol, 283.15 K) was 0.000272 and the solubility (mole fraction) (in isobutanol, 288.15 K) was 0.000344. For the same compound, the solubility (mole fraction) (in isobutanol, 293.15 K) was 0.000485, the solubility (mole fraction) (in isobutanol, 298.15 K) was 0.000587 and the solubility (mole fraction) (in isobutanol, 303.15 K) was 0.000739. For the same compound, the solubility (mole fraction) (in isobutanol, 308.15 K) was 0.00107, the solubility (mole fraction) (in isobutanol, 313.15 K) was 0.00131 and the solubility (mole fraction) (in isobutanol, 318.15 K) was 0.00161. It also gave a solubility (mole fraction) (in isopropanol, 278.15 K) of 0.000153, a solubility (mole fraction) (in isopropanol, 283.15 K) of 0.000216 and a solubility (mole fraction) (in isopropanol, 288.15 K) of 0.000261. For the same compound, the solubility (mole fraction) (in isopropanol, 293.15 K) was 0.000314, the solubility (mole fraction) (in isopropanol, 298.15 K) was 0.000481 and the solubility (mole fraction) (in isopropanol, 303.15 K) was 0.000593. It also gave a solubility (mole fraction) (in isopropanol, 308.15 K) of 0.000833, a solubility (mole fraction) (in isopropanol, 313.15 K) of 0.00106 and a solubility (mole fraction) (in isopropanol, 318.15 K) of 0.00137. It also gave a solubility (mole fraction) (in isopropyl acetate, 278.15 K) of 0.000329, a solubility (mole fraction) (in isopropyl acetate, 283.15 K) of 0.000423 and a solubility (mole fraction) (in isopropyl acetate, 288.15 K) of 0.00056. The solubility (mole fraction) (in isopropyl acetate, 293.15 K) was 0.000886, the solubility (mole fraction) (in isopropyl acetate, 298.15 K) was 0.00106 and the solubility (mole fraction) (in isopropyl acetate, 303.15 K) was 0.00145. For the same compound, the solubility (mole fraction) (in isopropyl acetate, 308.15 K) was 0.00189, the solubility (mole fraction) (in isopropyl acetate, 313.15 K) was 0.00241 and the solubility (mole fraction) (in isopropyl acetate, 318.15 K) was 0.00314. The solubility (mole fraction) (in methanol, 278.15 K) was 0.000427, the solubility (mole fraction) (in methanol, 283.15 K) was 0.000575 and the solubility (mole fraction) (in methanol, 288.15 K) was 0.000718. For the same compound, the solubility (mole fraction) (in methanol, 293.15 K) was 0.000908, the solubility (mole fraction) (in methanol, 298.15 K) was 0.001 and the solubility (mole fraction) (in methanol, 303.15 K) was 0.00129. The solubility (mole fraction) (in methanol, 308.15 K) was 0.00171, the solubility (mole fraction) (in methanol, 313.15 K) was 0.0021 and the solubility (mole fraction) (in methanol, 318.15 K) was 0.00271. It also gave a solubility (mole fraction) (in methyl acetate, 278.15 K) of 0.000971, a solubility (mole fraction) (in methyl acetate, 283.15 K) of 0.00121 and a solubility (mole fraction) (in methyl acetate, 288.15 K) of 0.00155. It also gave a solubility (mole fraction) (in methyl acetate, 293.15 K) of 0.00183, a solubility (mole fraction) (in methyl acetate, 298.15 K) of 0.0023 and a solubility (mole fraction) (in methyl acetate, 303.15 K) of 0.00267. The solubility (mole fraction) (in methyl acetate, 308.15 K) was 0.0034, the solubility (mole fraction) (in methyl acetate, 313.15 K) was 0.00406 and the solubility (mole fraction) (in methyl acetate, 318.15 K) was 0.00481. The solubility (mole fraction) (in n-butanol, 278.15 K) was 0.000302, the solubility (mole fraction) (in n-butanol, 283.15 K) was 0.000407 and the solubility (mole fraction) (in n-butanol, 288.15 K) was 0.000517. The solubility (mole fraction) (in n-butanol, 293.15 K) was 0.000643, the solubility (mole fraction) (in n-butanol, 298.15 K) was 0.000764 and the solubility (mole fraction) (in n-butanol, 303.15 K) was 0.000939. It also gave a solubility (mole fraction) (in n-butanol, 308.15 K) of 0.00127, a solubility (mole fraction) (in n-butanol, 313.15 K) of 0.00143 and a solubility (mole fraction) (in n-butanol, 318.15 K) of 0.00174. The solubility (mole fraction) (in n-propanol, 278.15 K) was 0.000181, the solubility (mole fraction) (in n-propanol, 283.15 K) was 0.000268 and the solubility (mole fraction) (in n-propanol, 288.15 K) was 0.000361. The solubility (mole fraction) (in n-propanol, 293.15 K) was 0.000561, the solubility (mole fraction) (in n-propanol, 298.15 K) was 0.000723 and the solubility (mole fraction) (in n-propanol, 303.15 K) was 0.000994. For the same compound, the solubility (mole fraction) (in n-propanol, 308.15 K) was 0.0013, the solubility (mole fraction) (in n-propanol, 313.15 K) was 0.00166 and the solubility (mole fraction) (in n-propanol, 318.15 K) was 0.00222.
